# According to patent US20090130064A1, “DIFFERENTIATION OF STEM CELLS AND STABILIZATION OF PHENOTYPICAL PROPERTIES OF PRIMARY CELLS” (priority 2004, published 2009):
# Assays:
# GSTA = GSTA iso-enzyme activity in cultured rat hepatocytes; format: cell-based; settings: TSA treatment
# Text: Hepatocytes were isolated from male Sprague-Dawley rats by a two-step collagenase perfusion as described (De Smet et al. In ‘Methods in Molecular Biology, Vol. 107: Cytochrome P450 Protocols’, Philips IR and Shephard E A, eds., p.p 295-301, Humana Press, Totowa, 1998). Hepatocytes were cultivated in monolayer cultures with Willam's E Medium (WE) for 7 days. […] The maintenance of differentiation characteristics was studied after 2, 4, and 7 days (D2, D4, D7) of culture.
# In order to investigate Phase II biotransformation, total cytosolic glutathione S-transferase (GST) activity and activities of individual GSTA, GSTP, and GSTM iso-enzymes were measured using standard techniques known in the art. (i.e., measuring conjugation of reduced glutathione with 1-chloro-2,4-dinitrobenzene for total GST; measuring conjugation of reduced glutathione with 7-chloro-4-nitrobenzo-2-oxa-1,3-diazole for GSTA activity; measuring conjugation of reduced glutathione with ethacrynic acid for GSTP activity; and measuring conjugation of reduced glutathione with 1,2-dichloro-4-nitrobenzene for GSTM activity).
# [1] = Biotransformation by rat liver microsomes; format: in vitro ADME; settings: 140 μM TSA, 150 min
# Protocol: Human liver specimens (n=3) were acquired from organ donors at the Academic Hospital of the VUB in accordance with the regulations of the local Medical Ethical Committee and immediately frozen in liquid nitrogen. While human liver microsomes were prepared from frozen liver tissue, rat livers (n=3) were freshly isolated for immediate microsome preparation. Microsomal 7-ethoxyresorufin-O-deethylase (EROD) [31]was used as a marker enzyme to evaluate the microsomal biotransformation activity before and after storage. Incubations were carried out in a 100 mM sodium potassium phosphate buffer pH 7.4 in the presence of a NADPH-generating system (0.5 mM NADP^+, 10 mM glucose 6-phosphate, 2 U/ml glucose 6-phosphate dehydrogenase and 0.6 mM MgCl2). Microsomes (0.0-2.0 mg microsomal protein/ml) were incubated with 140 μM substrate at 37° C. for 150 min. Boiled microsomes ([…]) served as a control. Biotransformation reactions were initiated by addition of substrate and, at selected time intervals, terminated by dilution with ice-cold acetonitrile (1:2.5).
# After centrifugation (2000 g, 45 min, 4° C.) of the diluted microsomal samples, the clear supernatant was injected onto a HPLC column. Samples from incubations with hepatocytes were thawed on ice and centrifugated (120 g, 2 min). […]
# Cx26 = Cx26 expression and localization (immunoblotting, immunocytochemistry) in rat hepatocytes; format: cell-based; settings: 1 μM TSA
# Protocol: (§1) In all conditions, the hepatocytes were cultivated as a monolayer configuration, and samples were taken at days 1, 4 and 7 (D1, D4, D7) of the cultivation time.
# Proteins (25 or 50 μg) were resolved on SDS-PAGE (7.5, 10 or 12%) and blotted afterwards onto nitrocellulose membranes. After blocking with non-fatty milk, membranes were incubated with appropriate concentrations of primary and secondary antibodies (HRP labeled). Proteins were detected using the ECL detection system (Amersham Biosciences). Primary antibodies: Cx26 (Zymed, 1/250), Cx32 (Sigma, 1/500), Cx43 (Zymed, 1/100).
# Hepatocytes were fixed with cold ethanol, peremeabilised with Triton X-100 (Sigma) and blocked with non-fatty milk. Following incubation with appropriate concentrations of primary and secondary antibodies (FITC or TRITC labeled), samples were mounted with DAPI-containing Vectashield (Vector Laboratories). Detection was performed by fluorescence microscopy (Leica DMR/XA).
# rat hepatocytes = test: Albumin ELISA in primary rat hepatocyte monolayers (conditions C1, C2); format: cell-based; settings: 1 μM TSA; from D4 (C2) or D7 (C1) on
# Protocol: as §1
# ALB concentrations secreted into the media were analysed by competitive enzyme-linked immunosorbent assay (ELISA) as described (Koebe et al. Int J Artif Organs 17: 95-106, 1994). The ALB levels were normalized with respect to the media used.
structure (smiles),measurement,setting,value
CC(C=CC(=O)NO)=CC(C)C(=O)c1ccc(N(C)C)cc1 (centres unmarked) [TSA],activity of GSTA iso-enzyme,GSTA,substantially unaffected
same,biotransformation in microsome suspensions,[1],slow and incomplete biotransformation
same,expression of Cx26,Cx26,decreases the expression
same,localization of Cx26,Cx26,perinuclear localization
same,albumin secretion,rat hepatocytes,improves albumin secretion
